Measurements: ChEMBL document CHEMBL4043090 (Bioorg Med Chem, 2017)

What was measured:
[1] = Cytotoxicity against human MAGI-CCR5 cells assessed as reduction in cell viability after 48 hrs by MTS assay; assay type: cell-based; settings: read-out: TC50
[2] = system: Human immunodeficiency virus 1; experiment: Antiviral activity against HIV-1 Bal infected in human MAGI-CCR5 cells assessed as reduction in viral infection after 48 hrs by fluorescence based beta-galactosidase reporter gene assay; assay type: functional, cell-based; settings: for IC50 / IC90: Human immunodeficiency virus 1, Bal, MAGI-CCR5, 48 h
[3] = Therapeutic index, ratio of TC50 for human MAGI-CCR5 cells to IC50 for HIV-1 Bal infected in MAGI-CCR5 cells
[4] = system: PBMC; experiment: Antiviral activity against HIV-1 Bal infected in human PBMC by MTS assay; assay type: functional, cell-based
[5] = Cytotoxicity against human PBMC assessed as reduction in cell viability by MTS assay; assay type: cell-based; settings: read-out: TC50 (the source's name)
[6] = Therapeutic index, ratio of TC50 for human PBMC to IC50 for HIV-1 Bal infected in human PBMC
[7] = Metabolic stability in rat plasma assessed as compound remaining at 100 uM after 1 hr by LC/MS analysis; assay type: ADME, cell-free; settings: read-out: Stability
[8] = Metabolic stability in rat liver microsomes assessed as compound remaining at 4 uM preincubated for 5 mins followed by NADPH addition measured after 60 mins by LC/MS analysis; assay type: ADME, microsome; settings: read-out: Stability
[9] = Therapeutic index, ratio of TC50 for human MAGI-CCR5 cells to IC50 for HIV-1 NL4-3 infected in MAGI-CCR5 cells
[10] = system: Human immunodeficiency virus 1; assay type: functional, cell-based; settings: Human immunodeficiency virus 1, A17, MAGI-CCR5, 48 h
[11] = system: Human immunodeficiency virus 1; experiment: Antiviral activity against HIV-1 NL4-3 harboring reverse transcriptase K103N mutant infected in human MAGI-CCR5 cells assessed as reduction in viral infection after 48 hrs by fluorescence based beta-galactosidase reporter gene assay; assay type: functional, cell-based; settings: Human immunodeficiency virus 1, NL4-3, MAGI-CCR5, 48 h
[12] = system: Human immunodeficiency virus 1; assay type: functional, cell-based; settings: Human immunodeficiency virus 1, NL4-3, MAGI-CCR5, 48 h
[13] = Therapeutic index, ratio of TC50 for human MAGI-CCR5 cells to IC50 for HIV-1 NL4-3 harboring reverse transcriptase K103N mutant infected in MAGI-CCR5 cells
[14] = Therapeutic index, ratio of TC50 for human MAGI-CCR5 cells to IC50 for HIV-1 NL4-3 harboring reverse transcriptase E138A mutant infected in MAGI-CCR5 cells
[15] = system: Human immunodeficiency virus 1; experiment: microbe, parasite or virus in culture; settings: Human immunodeficiency virus 1, NL4-3, MAGI-CCR5, 48 h
Description: Antiviral activity against wild type HIV-1 NL4-3 infected in human MAGI-CCR5 cells assessed as reduction in viral infection after 48 hrs by fluorescence based beta-galactosidase reporter gene assay

[16] = system: Human immunodeficiency virus 1; experiment: microbe, parasite or virus in culture; settings: Human immunodeficiency virus 1, NL4-3, MAGI-CCR5, 48 h; remark: listed apart in the source
Description: Antiviral activity against HIV-1 NL4-3 harboring reverse transcriptase E138A mutant infected in human MAGI-CCR5 cells assessed as reduction in viral infection after 48 hrs by fluorescence based beta-galactosidase reporter gene assay

[17] = (§1) Inhibition of HIV1 NL4-3 reverse transcriptase assessed as reduction in [3H]dTTP incorporation using poly(rA)/oligo(dT) as template/primer after 1 hr by microbeta scintillation counting analysis; design: species or system Human immunodeficiency virus 1
[18] = system: Human immunodeficiency virus 1; experiment: as §1

SMILES	CC50 at 48 h [1] [nM]	Activity [2]	IC50 [2] [nM]	IC90 [2] [nM]	TI [3]	IC50 [4] [nM]	IC90 [4] [nM]	CC50 [5] [nM]	TI [6]	remaining at 1 h, 100 µM [7] [%]	remaining at 1 h, 4 µM [8] [%]	TI [9]	IC50 [10] [nM]	IC50 [11] [nM]	IC90 [11] [nM]	IC50 [12] [nM]	IC90 [12] [nM]	IC50 [15] [nM]	IC90 [15] [nM]	IC90 [16] [nM]	other results
CC1=C(c2nc(-c3ccc(C#N)cc3)cs2)C(c2cc3ccccc3n2C)NC(=O)N1 (centres undefined)	> 100000	Dose-dependent effect	700	3700	143	1100	3200	> 100000	91	95.6	62.9	>=111 - 192	> 100000	3840	> 100000	> 100000	> 100000	520 to 900	5000 to 8390	> 100000	TI [13]: >26.04; TI [14]: >2.3; IC50 [16]: 43500 nM
CC1=C(c2nc(-c3ccc(C#N)cc3)cs2)[C@@H](c2cccc(O)c2)NC(=O)N1						110	420	> 100000	>909												IC50 [17]: 600 nM; inhibition [18]: Dose-dependent effect
Cc1cn([C@H]2C[C@H](N=[N+]=[N-])[C@@H](CO)O2)c(=O)[nH]c1=O [ZIDOVUDINE]	> 1000													10	210	9	100		350	> 1000	
CC1=C(c2nc(-c3ccc(C#N)cc3)cs2)[C@H](c2cccc(O)c2)NC(=O)N1						22000	77000		>4.5												IC50 [17]: > 10000 nM
CC1=C(c2nc(-c3ccc(C#N)cc3)cs2)C(c2ccc(F)nc2)NC(=O)N1 (centres undefined)	> 100000	Dose-dependent effect	1100	5400	91	590	2000	> 100000	170	100	49.4	>91	> 100000					1100	7600		IC90 [10]: > 100000 nM
Cc1ccnc2c1NC(=O)c1cccnc1N2C1CC1 [NEVIRAPINE]		Dose-dependent effect	40	30 to 420		40 to 60	180 to 190						> 10000	30	350	> 10000	> 10000	40 to 70	540 to 600	> 10000	
